pIC50: −log10 of the molar value.
Test system: 282377-053-R-J1-PDC tumor spheroids, viability
Experiment: Anticancer human tumor 282377-053-R-J1-PDC patient-derived colon adenocarcinoma cell line growth inhibition [TAK]
Details: spheroids with HUVEC and MSC; for pIC50: curve of first compound; for viability, T/C: stronger effect = lower value
Outline: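 Tumor cells were grown as spheroids with HUVEC and hMSC (60:25:15) and treated with targeted agents combined with TAK-243 or ipatasertib. Drugs were tested in half-log steps down from near the clinical Cmax, or from 10 microM where Cmax was unknown.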

[1] = second compound 0.3 µM, first compound 0.0316 µM
[2] = second compound 0.3 µM, first compound 0.1 µM
[3] = second compound 0.3 µM, first compound 0.316 µM
[4] = second compound 0.3 µM, first compound 1 µM
[5] = second compound 0.949 µM, first compound 0.0316 µM
[6] = second compound 0.949 µM, first compound 0.1 µM
[7] = second compound 0.949 µM, first compound 0.316 µM
[8] = second compound 0.949 µM, first compound 1 µM
[9] = second compound 3 µM, first compound 0.0316 µM
[10] = second compound 3 µM, first compound 0.1 µM
[11] = second compound 3 µM, first compound 0.316 µM
[12] = second compound 3 µM, first compound 1 µM
[13] = second compound 9.49 µM, first compound 0.0316 µM
[14] = second compound 9.49 µM, first compound 0.1 µM
[15] = second compound 9.49 µM, first compound 0.316 µM
[16] = second compound 9.49 µM, first compound 1 µM
[17] = second compound 30 µM, first compound 0.0316 µM
[18] = second compound 30 µM, first compound 0.1 µM
[19] = second compound 30 µM, first compound 0.316 µM
[20] = second compound 30 µM, first compound 1 µM
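Note: spheroids exposed to drugs for seven days before readout.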

In the case of `COc1c(OCCCN2CCOCC2)ccc2c3n(c(=NC(=O)c4cnc(N)nc4)nc12)CCN3` + CC(C)NCC(C(=O)N1CCN(c2ncnc3c2C(C)CC3O)CC1)c1ccc(Cl)cc1, the pIC50 (second compound 0.3 µM) was less than 6.00, the pIC50 (second compound 0.949 µM) was 6.17 and the pIC50 (second compound 3 µM) was 6.31. The pIC50 (second compound 9.49 µM) was 6.74, the pIC50 (second compound 30 µM) was 7.49 and the viability, T/C (second compound 0.3 µM, first compound 0.00316 µM) was 95%. For the same molecule, the viability, T/C (second compound 0.3 µM, first compound 0.01 µM) was 96%, the viability, T/C [1] was 91.8% and the viability, T/C [2] was 91.1%. It also gave a viability, T/C [3] of 87.9%, a viability, T/C [4] of 64.3% and a viability, T/C (second compound 0.949 µM, first compound 0.00316 µM) of 94.9%. The viability, T/C (second compound 0.949 µM, first compound 0.01 µM) was 87.7%, the viability, T/C [5] was 87.6% and the viability, T/C [6] was 81.3%. It also gave a viability, T/C [7] of 82.7%, a viability, T/C [8] of 33.2% and a viability, T/C (second compound 3 µM, first compound 0.00316 µM) of 86.1%. It also gave a viability, T/C (second compound 3 µM, first compound 0.01 µM) of 88.3%, a viability, T/C [9] of 80.5% and a viability, T/C [10] of 78.4%. The viability, T/C [11] was 73.4%, the viability, T/C [12] was 13.6% and the viability, T/C (second compound 9.49 µM, first compound 0.00316 µM) was 82.3%. It also gave a viability, T/C (second compound 9.49 µM, first compound 0.01 µM) of 79.1%, a viability, T/C [13] of 73.2% and a viability, T/C [14] of 66.8%. It also gave a viability, T/C [15] of 35.4%, a viability, T/C [16] of 11.4% and a viability, T/C (second compound 30 µM, first compound 0.00316 µM) of 66.4%. It also gave a viability, T/C (second compound 30 µM, first compound 0.01 µM) of 65.8%, a viability, T/C [17] of 48% and a viability, T/C [18] of 29.7%. For the same molecule, the viability, T/C [19] was 8.22% and the viability, T/C [20] was 4.24%.

Work on `Cc1nc(NC(=O)N2CCCC2C(N)=O)sc1-c1ccnc(C(C)(C)C(F)(F)F)c1` (stereo not given) + CC(C)NCC(C(=O)N1CCN(c2ncnc3c2C(C)CC3O)CC1)c1ccc(Cl)cc1 yielded a pIC50 (second compound 0.3 µM) of less than 5.00, a pIC50 (second compound 0.949 µM) of less than 5.00 and a pIC50 (second compound 3 µM) of less than 5.00. It also gave a pIC50 (second compound 9.49 µM) of less than 5.00, a pIC50 (second compound 30 µM) of 5.26 and a viability, T/C [1] of 99.7%. The viability, T/C [2] was 91.4%, the viability, T/C [3] was 91.7% and the viability, T/C [4] was 89.8%. For the same molecule, the viability, T/C (second compound 0.3 µM, first compound 3.16 µM) was 79.8%, the viability, T/C (second compound 0.3 µM, first compound 10 µM) was 70.4% and the viability, T/C [5] was 87.2%. It also gave a viability, T/C [6] of 91.5%, a viability, T/C [7] of 84% and a viability, T/C [8] of 81%. The viability, T/C (second compound 0.949 µM, first compound 3.16 µM) was 79.1%, the viability, T/C (second compound 0.949 µM, first compound 10 µM) was 81.3% and the viability, T/C [9] was 83.5%. It also gave a viability, T/C [10] of 83.9%, a viability, T/C [11] of 80% and a viability, T/C [12] of 77.3%. It also gave a viability, T/C (second compound 3 µM, first compound 3.16 µM) of 76.3%, a viability, T/C (second compound 3 µM, first compound 10 µM) of 77.3% and a viability, T/C [13] of 81.7%. It also gave a viability, T/C [14] of 81%, a viability, T/C [15] of 76.1% and a viability, T/C [16] of 75.8%. For the same molecule, the viability, T/C (second compound 9.49 µM, first compound 3.16 µM) was 69.6%, the viability, T/C (second compound 9.49 µM, first compound 10 µM) was 64% and the viability, T/C [17] was 71.7%. The viability, T/C [18] was 69.8%, the viability, T/C [19] was 66.4% and the viability, T/C [20] was 58%. It also gave a viability, T/C (second compound 30 µM, first compound 3.16 µM) of 56.1% and a viability, T/C (second compound 30 µM, first compound 10 µM) of 45.1%.
